Assay: incidence of side effect (hematologic toxicity) by single nucleotide polymorphism genotype in Japanese patients with colon cancer who had received irinotecan
Type: in vivo, human
Procedure: By using TaqMan SNP Assays Human (manufactured by Applied Biosystems, Inc.) and LightCycler (R) 480 Probe Master (manufactured by Roche Diagnostics, Inc.), Universal ProbeLibrary (manufactured by Roche Diagnostics, Inc.), and LightCycler 480 System II (manufactured by Roche Diagnostics, Inc.), 10 ng of genomic DNA was subjected to genotyping. After incubation at 95° C. for 10 min, the sample was subjected to PCR amplification with 55 cycles for rs1980576, rs2272761, and rs9425343, 45 cycles for rs12577167, rs7265854, and rs1135640, or 40 cycles for rs1547 (1 cycle consisted of 92° C. for 15 sec and 60° C. for 60 sec). The fluorescence emitted from the PCR products were measured.
The “Odds ratio” in Table 3 refers to an odds ratio indicating the occurrence of a side effect as calculated using a Fisher's exact test on a single nucleotide polymorphism being homozygous for a wild-type or homozygous for a variant type.
The term (P value/C.-A.) in Table 4 is the same as in Table 2. […] The term “Odds ratio” in Table 5 is the same as in Table 3.

[1] = N = 67, homozygous UGT1A1*28, homozygous *6, compound heterozygous excluded (Table 2), ACOX1 rs1135640 C/C
[2] = N = 67, homozygous UGT1A1*28, homozygous *6, compound heterozygous excluded (Table 2), ACOX1 rs1135640 C/G
[3] = N = 67, homozygous UGT1A1*28, homozygous *6, compound heterozygous excluded (Table 2), ACOX1 rs1135640 G/G
[4] = N = 67, homozygous UGT1A1*28, homozygous *6, compound heterozygous excluded (Table 3), ACOX1 rs1135640 G/G
[5] = N = 67, homozygous UGT1A1*28, homozygous *6, compound heterozygous excluded, ACOX1 rs1135640 C/C, C/G
[6] = N = 67, homozygous UGT1A1*28, homozygous *6, compound heterozygous excluded, APCDD1L rs1980576 A/A
[7] = N = 67, homozygous UGT1A1*28, homozygous *6, compound heterozygous excluded, APCDD1L rs1980576 A/A, A/G
[8] = N = 67, homozygous UGT1A1*28, homozygous *6, compound heterozygous excluded, APCDD1L rs1980576 A/G, G/G
[9] = N = 67, homozygous UGT1A1*28, homozygous *6, compound heterozygous excluded, APCDD1L rs1980576 G/G
[10] = N = 67, homozygous UGT1A1*28, homozygous *6, compound heterozygous excluded, APCDD1L rs7265854 C/C
[11] = N = 67, homozygous UGT1A1*28, homozygous *6, compound heterozygous excluded, APCDD1L rs7265854 T/T, T/C
[12] = N = 67, homozygous UGT1A1*28, homozygous *6, compound heterozygous excluded, EDEM3 rs9425343 T/G, G/G
[13] = N = 67, homozygous UGT1A1*28, homozygous *6, compound heterozygous excluded, EDEM3 rs9425343 T/T
[14] = N = 67, homozygous UGT1A1*28, homozygous *6, compound heterozygous excluded, R3HCC1 rs2272761 G/A, A/A
[15] = N = 68, homozygous UGT1A1*28, homozygous *6, compound heterozygous excluded, APCDD1L rs1980576 A/A
[16] = N = 68, homozygous UGT1A1*28, homozygous *6, compound heterozygous excluded, APCDD1L rs1980576 A/G
[17] = N = 68, homozygous UGT1A1*28, homozygous *6, compound heterozygous excluded, APCDD1L rs1980576 G/G
[18] = N = 68, homozygous UGT1A1*28, homozygous *6, compound heterozygous excluded, APCDD1L rs7268854 A/A
[19] = N = 68, homozygous UGT1A1*28, homozygous *6, compound heterozygous excluded, APCDD1L rs7268854 A/G
[20] = N = 68, homozygous UGT1A1*28, homozygous *6, compound heterozygous excluded, APCDD1L rs7268854 G/G
[21] = N = 68, homozygous UGT1A1*28, homozygous *6, compound heterozygous excluded, CSMD2 rs474474 A/A
[22] = N = 68, homozygous UGT1A1*28, homozygous *6, compound heterozygous excluded, CSMD2 rs474474 A/G
[23] = N = 68, homozygous UGT1A1*28, homozygous *6, compound heterozygous excluded, CSMD2 rs474474 G/G
[24] = N = 68, homozygous UGT1A1*28, homozygous *6, compound heterozygous excluded, EDEM3 rs9425343 G/G
[25] = N = 68, homozygous UGT1A1*28, homozygous *6, compound heterozygous excluded, EDEM3 rs9425343 T/G
[26] = N = 68, homozygous UGT1A1*28, homozygous *6, compound heterozygous excluded, EDEM3 rs9425343 T/T
[27] = N = 68, homozygous UGT1A1*28, homozygous *6, compound heterozygous excluded, GATA2 rs2335052 A/A
[28] = N = 68, homozygous UGT1A1*28, homozygous *6, compound heterozygous excluded, GATA2 rs2335052 G/A
[29] = N = 68, homozygous UGT1A1*28, homozygous *6, compound heterozygous excluded, GATA2 rs2335052 G/G
[30] = N = 68, homozygous UGT1A1*28, homozygous *6, compound heterozygous excluded, MKKS rs1547 C/C
[31] = N = 68, homozygous UGT1A1*28, homozygous *6, compound heterozygous excluded, MKKS rs1547 C/T
[32] = N = 68, homozygous UGT1A1*28, homozygous *6, compound heterozygous excluded, MKKS rs1547 T/T
[33] = N = 68, homozygous UGT1A1*28, homozygous *6, compound heterozygous excluded, OR5112 rs12577167 A/A
[34] = N = 68, homozygous UGT1A1*28, homozygous *6, compound heterozygous excluded, OR5112 rs12577167 A/G
[35] = N = 68, homozygous UGT1A1*28, homozygous *6, compound heterozygous excluded, OR5112 rs12577167 G/G
[36] = N = 68, homozygous UGT1A1*28, homozygous *6, compound heterozygous excluded, R3HCC1 rs2272761 A/A
[37] = N = 68, homozygous UGT1A1*28, homozygous *6, compound heterozygous excluded, R3HCC1 rs2272761 G/A
[38] = N = 68, homozygous UGT1A1*28, homozygous *6, compound heterozygous excluded, R3HCC1 rs2272761 G/G

CCc1c2c(nc3ccc(OC(=O)N4CCC(N5CCCCC5)CC4)cc13)-c1cc3c(c(=O)n1C2)COC(=O)[C@]3(O)CC [irinotecan, 1,4′-Bipiperidine-1′-carboxylic acid (S)-4,11-diethyl-3,4,12,14-tetrahydro-4-hydroxy-3,14-dioxo-1H-pyrano[3′,4′:6,7]indolizino[1,2-b]quinolin-9-yl ester]
irinotecan side effect observed (68 cases considered to have a low risk of a side effect in view of the UGT1A gene polymorphisms): 42.6%
Toxicity No [1]: 3
Toxicity Yes [1]: 6
Toxicity No [2]: 14
Toxicity Yes [2]: 15
Toxicity No [3]: 21
Toxicity Yes [3]: 8
Toxicity No [4]: 21
Toxicity Yes [4]: 8
Toxicity No [5]: 17
Toxicity Yes [5]: 21
Toxicity No [6]: 16
Toxicity Yes [6]: 5
Toxicity No [7]: 35
Toxicity Yes [7]: 21
Toxicity No [8]: 22
Toxicity Yes [8]: 24
Toxicity No [9]: 3
Toxicity Yes [9]: 8
Toxicity No [10]: 8
Toxicity Yes [10]: 1
Toxicity No [11]: 30
Toxicity Yes [11]: 28
Toxicity No [12]: 31
Toxicity Yes [12]: 17
Toxicity No [13]: 7
Toxicity Yes [13]: 12
Toxicity No [14]: 32
Toxicity Yes [14]: 29
Toxicity No (N = 67, homozygous UGT1A1*28, homozygous *6, compound heterozygous excluded, R3HCC1 rs2272761 G/G): 6
Toxicity No [15]: 16
Toxicity Yes [15]: 5
Toxicity No [16]: 20
Toxicity Yes [16]: 16
Toxicity No [17]: 3
Toxicity Yes [17]: 8
Toxicity No [18]: 13
Toxicity Yes [18]: 13
Toxicity No [19]: 18
Toxicity Yes [19]: 15
Toxicity No [20]: 8
Toxicity Yes [20]: 1
Toxicity No [21]: 16
Toxicity Yes [21]: 17
Toxicity No [22]: 18
Toxicity Yes [22]: 8
Toxicity No [23]: 5
Toxicity Yes [23]: 4
Toxicity No [24]: 10
Toxicity Yes [24]: 3
Toxicity No [25]: 21
Toxicity Yes [25]: 14
Toxicity No [26]: 8
Toxicity Yes [26]: 12
Toxicity No [27]: 5
Toxicity Yes [27]: 3
Toxicity No [28]: 20
Toxicity Yes [28]: 10
Toxicity No [29]: 14
Toxicity Yes [29]: 16
Toxicity No [30]: 20
Toxicity Yes [30]: 8
Toxicity No [31]: 16
Toxicity Yes [31]: 16
Toxicity No [32]: 3
Toxicity Yes [32]: 5
Toxicity No [33]: 19
Toxicity Yes [33]: 20
Toxicity No [34]: 14
Toxicity Yes [34]: 8
Toxicity No [35]: 6
Toxicity Yes [35]: 1
Toxicity No [36]: 22
Toxicity Yes [36]: 21
Toxicity No [37]: 11
Toxicity Yes [37]: 8
Toxicity No [38]: 6
Toxicity Yes [38]: 0
